Assays:
Type in all cases: cell-based
[1] = system: Bacillus stearothermophilus var. calidolactis; test: Delvotest microbiological test, 0.27 ml test medium, nutrients added as tablet, different volumes of milk; settings: for concentration giving a Z-value of 0 (threshold): 2.6 hours at 64° C., Z=0.35.a+0.65.b, FIG. 1
Text: (§1) The arrangement can be used for detecting residues of antibiotics in milk. The commercially available Delvotest® and BR®-test are commonly used. Delvotest® comprises an agar matrix, CFU's of an acid forming microorganism, as well as a color indicator. With the arrangement mentioned above it is possible to automatically scan the bottom side of each of the samples in a test plate. The color and the brightness of the reflected light are registered in three variables, each describing one color component, for instance the so-called L*a*b* model. In the L*a*b* model, the color spectrum is divided in a two-dimensional matrix. The position of a color in this matrix is registered by means of the two variables “a” and “b”. The variable L indicates the intensity (for instance, from light blue to dark-blue). It is possible to make a criterion comprising the a-value, b-value and L-value to make a composite function as follows: Z=wL.L+wa.a+wb.b
(§2) where wL, wa and wb are weighting factors for the L-value, a-value and b-value, respectively. […] By combining two or more of the color components in the L*a*b* model in a predetermined manner that depends on the type of residue and the sample, an accurate detection is possible. In practice, a certain value of Z at which a test should switch between positive and negative result (the threshold value) can be experimentally predetermined.
(§3) As outlined in the detailed description, the following equation was used: Z=0.35.a+0.65.b. The explanation of the symbols used in the Figure is as follows.
(§4) A commercially available microbiological test system (Delvotest®) having 0.27 ml of test medium containing agar, CFU's of Bacillus stearothermophilus var. calidolactis, an antifolate, and the indicator Bromocresol Purple was investigated using milk with added penicillin G in concentrations of 0, 2, 3, 4 and 6 ppb. These five milk samples were applied to the test systems in a series of four different volumes, ie. 0.05 ml, 0.10 ml (the Delvotest® recommended volume), 0.20 ml and 0.30 ml. Before addition of the milk, a tablet with nutrients was applied on the test medium. After the milk was added, the tests were incubated for 2.6 hours at 64° C. If there are no or little antibiotics that inhibit the growth of the test organism, after some time, an acid environment is formed by the growing microorganisms and the indicator changes color from blue/purple to yellow. However, if there are sufficient antibiotics to inhibit growth, the color of the indicator remains purple.
Firstly, the colors were measured using the scanning apparatus described in the detailed description using the following formula for the Z-value: Z=0.35.a+0.65.b. […]

[2] = system: Bacillus stearothermophilus var. calidolactis; test: Delvotest microbiological test, 0.15 ml test medium with nutrients present in the test medium, different volumes of milk, visual colour score; settings: 3 hours at 64° C., FIG. 3
Procedure: In this test, the nutrients were present in the test medium. The explanation of the symbols used in the Figure is as follows.
A commercially available microbiolgical test system (Delvotest®) having 0.15 ml of test medium containing agar, CFU's of Bacillus stearothermophilus var. calidolactis, an antifolate, nutrients, and the indicator Bromocresol Purple was investigated using milk with added penicillin G in concentrations of 0, 0.5, 1, 2, 3 and 4 ppb. These six different milk samples were applied to the test systems in a series of five different volumes, i.e. 0.05 ml, 0.10 ml (the Delvotest® recommended volume), 0.15 ml, 0.20 ml and 0.30 ml. After the milk was added, the tests were incubated for 3 hours at a temperature of 64° C. If there are no antibiotics (or only little) that inhibit the growth of the test organism, after a certain amount of time, an acid environment is formed by the growing microorganisms. Then, the color of the indicator changes from blue/purple to yellow.
Intermediate color changes were assigned values of −2, −1, 0, +1 or +2, depending on the degree of coloration. […] If, for example, a visual color of 2 is chosen as the required threshold value, it can be seen from FIG. 3 that, whereas the standard recommended amount of 0.10 ml milk gives a color of 2 at a concentration of 2 ppb penicillin G, whereas for 0.15, 0.20 and 0.30 ml milk this threshold already is reached at 1.7 ppb penicillin G.

[3] = system: Bacillus stearothermophilus var. calidolactis; test: Delvotest microbiological test, 0.27 ml test medium, nutrients as tablet, different milk volumes at different incubation times; settings: 4 ppb penicillin G
Text: as §1, §2, §3, §4
A similar experimental setup as in Example 1 was used. […] (for 2.4 h, normally referred to as the point of indicator change, and 3.0 h, normally referred to as the point of reading). […]

CC1(C)S[C@@H]2[C@H](NC(=O)Cc3ccccc3)C(=O)N2[C@H]1C(=O)O [penicillin G]
concentration giving a Z-value of 0 (threshold) ([1]; 0.10 ml milk on 0.27 ml test medium): 3 ppb | concentration giving a Z-value of 0 (threshold) ([1]; 0.20 ml milk on 0.27 ml test medium): 2.3 ppb | concentration giving a Z-value of 0 (threshold) ([1]; 0.30 ml milk on 0.27 ml test medium): 2.0 ppb | change of sensitivity of the test towards the antibiotic ([1]; milk, doubling the amount of fluid sample advocated by the producer of the test): increases by a third | concentration giving a visual color of 2 (threshold) ([2]; 0.10 ml milk on 0.15 ml test medium): 2 ppb | concentration giving a visual color of 2 (threshold) ([2]; 0.15 ml milk on 0.15 ml test medium): 1.7 ppb | concentration giving a visual color of 2 (threshold) ([2]; 0.20 ml milk on 0.15 ml test medium): 1.7 ppb | concentration giving a visual color of 2 (threshold) ([2]; 0.30 ml milk on 0.15 ml test medium): 1.7 ppb | Z-value ([3]; 0.10 ml milk, 2.4 h at 64° C., line ◯ of FIG. 2): 11 | Z-value ([3]; 0.10 ml milk, 3.0 h at 64° C., line ⋄ of FIG. 2): 4 | Z-value ([3]; 0.30 ml milk, 2.4 h at 64° C., line Δ of FIG. 2): 14 | Z-value ([3]; 0.30 ml milk, 3.0 h at 64° C., line □ of FIG. 2): 13

Source: patent publication US20060134725A1, “Method for the determination of the presence of an antibiotic in a fluid” (priority 2003, published 2006)
